# Test results from US20110027240A1, “[…] ENTRY […] FOR THERAPY OF HIV INFECTION” (priority 2008, published 2011).
# Tested on: lentiviral vector particles pseudotyped with the HIV-1 JRFL envelope glycoprotein
# Test: Single-round infection assay
# Type: cell-based
# Settings: PM-1 cells; supernatants of transfected HEK 293T cells; eGFP positive cells by flow cytometry
# Description: Virus production and titration: Viral vector supernatants were produced in HEK 293T cells. 6×10^6 cells were plated on 9.4 cm dishes 24 h prior to transfection. For transfection, the medium was changed and 25 μM chloroquine was added. 7.5 μg retroviral vector DNA was transfected by the calcium phosphate precipitation method. To generate GaLV pseudotyped retroviral particles 2 μg pALF-GaLV CM (GaLV CM expression plasmid; Stitz et al., Virology 2000) and 12.5 μg M57-DAW (MuLV gag/pol expression plasmid; Schambach et al., Gene Ther 2006) were transfected in addition. For the production of lentiviral vectors encoding eGFP, and pseudotyped with the HIV-1 JRFL envelope glycoprotein 7.5 μg pHR′SIN-cPPT-SEW-new (SIN lentiviral vector encoding eGFP), 12.5 μg pCMV-dR8.91 (lentiviral gag/pol expression plasmid), and 1 μg M118 (HIV-1 JRFL expression plasmid) were co-transfected. Medium was changed after 6-8 h incubation. […] In the case of lentiviral vectors expressing eGFP, vector titers were determined by transducing predefined numbers of PM-1 cells with serial dilutions of vector supernatant and analyzing the percentage of eGFP positive cells by flow cytometry. For retroviral vectors expressing secreted peptides transduced cells were analyzed by intracellular immunostaining for the peptide of interest. […]
sequence,measurement,value
WQQWERQVRFLDANITKLLEEAQIQQEKNMYELQELDKWASLWNWF [C46-EHO],antiviral (inhibitory) activity of supernatants containing secreted peptides,slightly reduced
